# Test results taken from patent EP4722213A1, “NITROGEN-CONTAINING FUNCTIONAL GROUP-SUBSTITUTED PYRIDAZINOPYRIDONE DERIVATIVE AND USE THEREOF” (Sichuan Huiyu Pharmaceutical Co., Ltd., priority 2023, dated 2024).
# Where a name gives a salt, the structure may show the parent alone.
# Target: T1, SOS1 (Homo sapiens, UniProt Q07889)
# T1 sequence (Q07889 1-1333): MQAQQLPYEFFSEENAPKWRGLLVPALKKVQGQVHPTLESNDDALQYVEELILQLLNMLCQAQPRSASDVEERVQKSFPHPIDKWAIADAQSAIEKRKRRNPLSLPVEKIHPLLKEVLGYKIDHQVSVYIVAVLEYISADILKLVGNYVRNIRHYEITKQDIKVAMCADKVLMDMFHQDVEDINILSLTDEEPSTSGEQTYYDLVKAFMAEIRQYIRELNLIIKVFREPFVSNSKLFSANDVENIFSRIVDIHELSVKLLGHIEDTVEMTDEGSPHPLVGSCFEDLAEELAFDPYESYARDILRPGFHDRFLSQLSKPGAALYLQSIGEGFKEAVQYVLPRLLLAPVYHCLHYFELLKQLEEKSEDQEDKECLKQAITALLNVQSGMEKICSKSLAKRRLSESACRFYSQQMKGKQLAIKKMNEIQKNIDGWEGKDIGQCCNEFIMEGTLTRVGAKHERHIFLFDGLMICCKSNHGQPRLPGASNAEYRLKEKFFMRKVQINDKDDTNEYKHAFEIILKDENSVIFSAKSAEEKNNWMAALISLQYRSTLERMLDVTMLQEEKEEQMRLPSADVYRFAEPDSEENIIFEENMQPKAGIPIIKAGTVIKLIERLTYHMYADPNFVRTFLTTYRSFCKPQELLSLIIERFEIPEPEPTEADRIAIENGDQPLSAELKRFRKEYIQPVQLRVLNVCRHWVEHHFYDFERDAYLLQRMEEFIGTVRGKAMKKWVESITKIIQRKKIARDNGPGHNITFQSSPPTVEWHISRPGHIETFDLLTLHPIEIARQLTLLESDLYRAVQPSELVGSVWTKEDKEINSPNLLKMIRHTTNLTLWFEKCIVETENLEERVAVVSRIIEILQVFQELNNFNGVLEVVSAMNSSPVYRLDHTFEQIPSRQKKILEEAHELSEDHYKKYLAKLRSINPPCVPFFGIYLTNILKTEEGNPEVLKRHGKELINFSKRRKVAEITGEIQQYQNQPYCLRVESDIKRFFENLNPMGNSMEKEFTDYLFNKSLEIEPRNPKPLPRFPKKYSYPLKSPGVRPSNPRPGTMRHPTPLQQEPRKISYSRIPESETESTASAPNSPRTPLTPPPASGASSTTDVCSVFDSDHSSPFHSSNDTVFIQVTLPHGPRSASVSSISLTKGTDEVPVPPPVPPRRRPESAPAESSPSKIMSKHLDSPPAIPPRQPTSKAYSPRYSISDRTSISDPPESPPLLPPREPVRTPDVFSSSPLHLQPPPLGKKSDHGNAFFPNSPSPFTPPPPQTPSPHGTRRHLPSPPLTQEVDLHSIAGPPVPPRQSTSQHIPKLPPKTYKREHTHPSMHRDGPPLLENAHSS
# Assay: biochemical
row,Structure (SMILES),IC50 [nM]
1,C[C@@H](Nc1nnc(N2CC3CCC(C2)N3C)c2cc(=O)n(C3(C)CC3)cc12)c1cccc(C(F)F)c1F [Example 193],4.3
2,"Cc1c([C@@H](C)Nc2nnc(N3CCC[C@H]3C)c3cc(=O)n(C4(C)CC4)cc23)cccc1C(F)(F)F [Example 63, 4-(((R)-1-(2-methyl-3-(trifluoromethyl)phenyl)ethyl)amino)-6-(1-methylcyclopropyl)-1-((R)-2-methylpyrrolidin-1-yl)pyrido[3,4-d]pyridazin-7(6H)-one]",7.8
3,"C[C@@H](Nc1nnc(N2CC3(CCOCC3)C2)c2cc(=O)n(C3(C)CC3)cc12)c1cccc(C(F)F)c1F [Example 182, (R)-4-((1-(3-(difluoromethyl)-2-fluorophenyl)ethyl)amino)-6-(1-methylcyclopropyl)-1-(7-oxa-2-azaspiro[3.5]nonan-2-yl)pyrido[3,4-d]pyridazin-7(6H)-one]",5
4,"CCN(CC)c1nnc(N[C@H](C)c2cccc(C(F)F)c2F)c2cn(C3(C)CC3)c(=O)cc12 [Example 29, (R)-1-(diethylamino)-4-(((R)1-(3-(difluoromethyl)-2-fluorophenyl)ethyl)amino)-6-(1-methylcyclopropyl) pyrido[3,4-d]pyridazin-7(6H)-one]",10.6
5,"CC(C)N1CCN(c2nnc(N[C@H](C)c3cccc(C(F)F)c3F)c3cn(N4CC5CCCC5C4)c(=O)cc23)CC1 (stereo partly drawn) [Example 149, 4-(((R)-1-(3-(difluoromethyl)-2-fluorophenyl)ethyl)amino)-6-(hexahydrocyclopenta[c]pyrrol-2(1H)-yl)-1-(4-isopropylpiperazin-1-yl)pyrido[3,4-d]pyridazin-7(6H)-one]",8.6
6,"C[C@@H](Nc1nnc(N2CCC(CO)C2)c2cc(=O)n(C3(C)CC3)cc12)c1cccc(C(F)(F)CO)c1 (stereo partly drawn) [Example 228, 4-(((R)-1-(3-(1,1-difluoro-2-hydroxyethyl)phenyl)ethyl)amino)-1-(3-(hydroxymethyl)pyrrolidin-1-yl)-6-(1-methylcyclopropyl) pyrido[3,4-d]pyridazin-7(6H)-one]",4.4
7,"Cc1c([C@@H](C)Nc2nnc(N3CC(F)(F)C3)c3cc(=O)n(C4CC4)cc23)cccc1C(F)(F)F [Example 54, (R)-6-cyclopropyl-1-(3,3-difluoroazetidin-1-yl)-4-((1-(2-methyl-3-(trifluoromethyl)phenyl)ethyl)amino)pyr ido[3,4-d]pyridazin-7(6H)-one]",50.3
8,"C[C@@H](Nc1nnc(N2CCN(C)[C@@H](C)C2)c2cc(=O)n(C3(C)CC3)cc12)c1cccc(C(F)(F)F)c1 [Example 180, 1-((S)-3,4-dimethylpiperazin-1-yl)-6-(1-methylcyclopropyl)-4-(((R)-1-(3-(trifluoromethyl)phenyl)ethyl)amino)pyr ido[3,4-d]pyridazin-7(6H)-one formate]",7.2
9,"Cc1c([C@@H](C)Nc2nnc(N3CCS(=O)(=O)CC3)c3cc(=O)n(C4CC4)cc23)cccc1C(F)(F)F [Example 59, (R)-6-cyclopropyl-1-(1,1-dioxidothiomorpholino)-4-((1-(2-methyl-3-(trifluoromethyl)phenyl)ethyl)amino)pyr ido[3,4-d]pyridazin-7(6H)-one]",27.4
10,"Cc1cc(N)cc([C@@H](C)Nc2nnc(N3CCN(C4CC4)CC3)c3cc(=O)n(C4(C)CC4)cc23)c1F [Example 162, (R)-4-((1-(5-amino-2-fluoro-3-methylphenyl)ethyl)amino)-1-(4-cyclopropylpiperazin-1-yl)-6-(1-methylcyclopropyl) pyrido[3,4-d]pyridazin-7(6H)-one]",6.7
11,"C[C@@H](Nc1nnc(N2CCC3(CCCC3)CC2)c2cc(=O)n(C3(C)CC3)cc12)c1cccc(C(F)F)c1F [Example 185, (R)-4-((1-(3-(difluoromethyl)-2-fluorophenyl)ethyl)amino)-6-(1-methylcyclopropyl)-1-(8-azaspiro[4.5]decan-8-yl)pyrido[3,4-d]pyridazin-7(6H)-one]",84.3
